Results on two compounds are retold here after US7655643B2, “Antibacterial macrocycles with substituted biphenyl” (AiCuris GmbH & Co. KG, priority 2003, dated 2010).

Values after ≈ are worked out from the molar mass of the structure shown. Where a name gives a salt, the structure may show the parent alone. Read-outs that look alike come from different tables or passages of the source.

The target in experiment [1] is S. aureus 133 Translation. Briefly: S. aureus in vitro transcription-translation assay (firefly luciferase, S30 extract). The format is biochemical. To be noted: Table B. The source says: In order to construct a reporter plasmid which can be used in an in vitro transcription -translation assay from S. aureus the plasmid pBESTluc (Promega Corporation, USA) is used. The E. coli tac promoter present in this plasmid in front of the firefly luciferase is replaced by the capA1 promoter with appropriate Shine-Dalgarno sequence from S. aureus. The primers CAPFor 5′-[…] -[…]-3′ and CAPRev 5′-[…]-3′ are used for this. The primer CAPFor contains the capA1 promoter, the ribosome binding site and the 5′ region of the luciferase gene. After PCR using pBESTluc as template it is possible to isolate a PCR product which contains the firefly luciferase gene with the fused capA1 promoter. This is, after restriction with ClaI and HindIII, ligated into the vector pBESTluc which has likewise been digested with ClaI and HindIII. The resulting plasmid pla can be replicated in E. coli and be used as template in the S. aureus in vitro transcription-translation assay.
Six liters of BHI medium are inoculated with a 250 ml overnight culture of a S. aureus strain and allowed to grow at 37° C. until the OD600 nm is 2-4. The cells are harvested by centrifugation and washed in 500 ml of cold buffer A (10 mM Tris acetate, pH 8.0, 14 mM magnesium acetate, 1 mM DTT, 1 M KCl). After renewed centrifugation, the cells are washed in 250 ml of cold buffer A with 50 mM KCl, and the resulting pellets are frozen at −20° C. for 60 min. The pellets are thawed on ice in 30 to 60 min and taken up to a total volume of 99 ml in buffer B (10 mM Tris acetate, pH 8.0, 20 mM magnesium acetate, 1 mM DTT, 50 mM KCl). 1.5 ml lysostaphin (0.8 mg/ml) in buffer B are introduced into 3 precooled centrifuge cups each and each mixed with 33 ml of the cell suspension. The samples are incubated at 37° C., shaking occasionally, for 45 to 60 min, before 150 μl of a 0.5 M DTT solution are added. The lysed cells are centrifuged at 30 000×g and 4° C. for 30 min. The cell pellet is taken up in buffer B and then centrifuged again under the same conditions, and the collected supernatants are combined. The supernatants are centrifuged again under the same conditions, and 0.25 volumes of buffer C (670 mM Tris acetate, pH 8.0, 20 mM magnesium acetate, 7 mM Na3 phosphoenolpyruvate, 7 mM DTT, 5.5 mM ATP, 70 μM amino acids (complete from Promega), 75 μg of pyruvate kinase (Sigma, Germany)/ml are added to the upper ⅔ of the supernatant. The samples are incubated at 37° C. for 30 min. The supernatants are dialysed against 21 of dialysis buffer (10 mM Tris acetate, pH 8.0, 14 mM magnesium acetate, 1 mM DTT, 60 mM potassium acetate) in a dialysis tube with a 3500 Da cut-off with one buffer change at 4° C. overnight. The dialysate is concentrated to a protein concentration of about 10 mg/ml by covering the dialysis tube with cold PEG 8000 powder (Sigma, Germany) at 4° C. The S30 extracts can be stored in aliquots at −70° C.
Inhibition of protein biosynthesis of the compounds can be shown in an in vitro transcription-translation assay. The assay is based on the cell-free transcription and translation of firefly luciferase using the reporter plasmid pla as template and cell-free S30 extracts obtained from S. aureus. The activity of the resulting luciferase can be detected by luminescence measurement.
The amount of S30 extract or plasmid plato be employed must be tested anew for each preparation in order to ensure an optimal concentration in the assay. 3 μl of the substance to be tested, dissolved in 5% DMSO, are introduced into an MTP. Then 10 μl of a suitably concentrated plasmid solution p1 a are added. Then 46 μl of a mixture of 23 μl of premix (500 mM Potassium acetate, 87.5 mM Tris acetate, pH 8.0, 67.5 mM ammonium acetate, 5 mM DTT, 50 μg of folic acid/ml, 87.5 mg of PEG 8000/ml, 5 mM ATP, 1.25 mM each NTP, 20 μM each amino acid, 50 mM PEP (Na3 salt), 2.5 mM cAMP, 250 μg each E. coli tRNA/ml) and 23 μl of a suitable amount of S. aureus S30 extract are added and mixed. […]

The test system of a further experiment is S. aureus 133. Put plainly: MIC, alternative method, agar dilution test. The format is cell-based. The procedure: (§1) The minimum inhibitory concentration (MIC) is the minimum concentration of an antibiotic with which the growth of a test microbe is inhibited over 18-24 h. The inhibitor concentration can be determined by standard microbiological methods using modified medium in an agar dilution test (see, for example, the National Committee for Clinical Laboratory Standards. Methods for dilution antimicrobial susceptibility tests for bacteria that grow aerobically; approved standard-fifth edition. NCCLS document M7-A5 [ISBN 1-56238-394-9]. NCCLS, 940 West Valley Road, Suite 1400, Wayne, PA. 19087-1898 USA, 2000). The bacterial microbes are cultivated on 1.5% agar plates containing 20% defibrinated horse blood. The test microbes, which are incubated on Columbia blood agar plates (Becton-Dickinson) overnight, are diluted in PBS, adjusted to a microbe count of about 5×10^5 microbes/ml and placed as drops (1-3 μl) on test plates. The test substances contain various dilutions of the test substances (1:2 dilution stages). The cultures are incubated at 37° C. in the presence of 5% CO2 for 18-24 hours.
(§2) The lowest concentration of each substance at which no visible bacterial growth occurs is defined as the MIC and is reported in μg/ml.
On the technique in general: Agar dilution tests growth on a series of plates holding different concentrations.

Another experiment deals with S. aureus T17. Briefly: MIC, alternative method, agar dilution test. The format is cell-based. To be noted: Staphylococcus aureus. As for the experimental part: as §1, §2
A further experiment has as its system E. faecium L4001. Put plainly: MIC, alternative method, agar dilution test. The settings on record: Enterococcus faecium. The format is cell-based, Enterococcus faecium. As for the experimental part: as §1, §2

The IC50 is the concentration that gives 50% inhibition. Read a low IC50 as higher potency. As usually defined, the MIC is the lowest concentration that inhibits growth of the organism. `CN1C(=O)[C@H](CCCN)NC(=O)[C@@H](N)Cc2cc(ccc2O)-c2ccc(Cl)c(c2)C[C@H]1C(=O)NCCN(CCN)CCN` [Example 42, (8S,11S,14S)-14-Amino-11-(3-aminopropyl)-N-{2-[bis(2-aminoethyl)amino]ethyl}-5-chloro-17-hydroxy-9-methyl-10,13-dioxo-9,12-diazatricyclo[14.3.1.1^2,6]henicosa-1(20),2(21)3,5,16,18-hexaene-8-carboxamide penta(hydrotrifluoroacetate)] returned an IC50 in experiment [1] of 80 nM. Besides, the MIC in the experiment with S. aureus 133 (Staphylococcus aureus, 133, agar dilution, 1.5% agar with 20% defibrinated horse blood, 5% CO2, 18-24 h, read-out: MIC S. aureus 133) worked out at 2 µg/mL (≈ 3.24 µM); in the experiment on S. aureus T17 (T17, agar dilution, 1.5% agar with 20% defibrinated horse blood, 5% CO2, 18-24 h, read-out: MIC S. aureus T17) it was 2 µg/mL (≈ 3.24 µM); with E. faecium L4001 (L4001, agar dilution, 1.5% agar with 20% defibrinated horse blood, 5% CO2, 18-24 h, read-out: MIC E. faecium L4001), 32 µg/mL (≈ 51.8 µM).

`NCCC[C@@H]1NC(=O)[C@@H](N)Cc2cc(ccc2O)-c2ccc(N)c(c2)C[C@@H](C(=O)NCCN)NC1=O` [Example 43, (8S,11S,14S)-5,14-Diamino-N-(2-aminoethyl)-11-(3-aminopropyl)-17-hydroxy-10,13-dioxo-9,12-diazatricyclo[14.3.1.1^2,6]henicosa-1(20),2(21),3,5,16,18-hexaene-8-carboxamide tetrahydrochloride] registered an IC50 in experiment [1] of 900 nM. Also, the MIC was 2 µg/mL in the experiment with S. aureus 133 (Staphylococcus aureus, 133, read-out: MIC S. aureus 133); 4 µg/mL with S. aureus T17 (T17, read-out: MIC S. aureus T17); over 32 µg/mL with E. faecium L4001 (L4001, read-out: MIC E. faecium L4001).
